Results: patent US12336981B2, “Compounds and compositions for the inhibition of NAMPT” (Valo Health, Inc., priority 2010, dated 2025)
Where two headings read alike, the source gives them in different places.

Key:
NAMPT = biological target: T1, NAMPT (Homo sapiens, UniProt P43490); assay: Biochemical inhibition assay: NAMPT enzymatic reaction, NMN quantified by mass spectrometry; conditions: read-out: Biochem IC50
T1 construct: His tag; host or cells: E. coli
In short: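 Inhibition of E. coli-expressed His-tagged human NAMPT, measured as NMN formation by mass spectrometry after a 30 min room-temperature reaction containing 1 μM NAM, 100 μM PRPP and 2.5 mM ATP.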

A2780 cells = assay: In-vitro cell proliferation assay (SRB), A2780 cells; format: cell-based; conditions: Homo sapiens, A2780, 72 h, A2780 cells, 72 hours, read-out: A2780 IC50
In short: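 SRB read-out: 6% TCA fix 1 h at 4° C., stain, Tris solubilize, A570. Media-only background subtracted; % inhibition from two compound concentrations.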

T1 sequence (P43490 whole entry): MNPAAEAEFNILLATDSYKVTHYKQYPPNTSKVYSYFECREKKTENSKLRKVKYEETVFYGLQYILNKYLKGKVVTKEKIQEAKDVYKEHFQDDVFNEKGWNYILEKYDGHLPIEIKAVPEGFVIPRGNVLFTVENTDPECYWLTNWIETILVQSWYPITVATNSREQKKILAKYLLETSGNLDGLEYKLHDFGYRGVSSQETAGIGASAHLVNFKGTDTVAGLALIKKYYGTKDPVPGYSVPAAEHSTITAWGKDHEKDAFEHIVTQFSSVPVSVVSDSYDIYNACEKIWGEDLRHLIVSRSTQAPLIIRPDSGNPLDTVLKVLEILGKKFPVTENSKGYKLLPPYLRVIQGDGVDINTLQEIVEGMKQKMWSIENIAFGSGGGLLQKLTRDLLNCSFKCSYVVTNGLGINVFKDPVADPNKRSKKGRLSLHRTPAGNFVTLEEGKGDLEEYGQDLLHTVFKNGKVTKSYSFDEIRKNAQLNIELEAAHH

Compound	IC50 (NAMPT; NAMPT enzymatic assay) [nM]	IC50 (A2780 cells; SRB) [nM]	IC50 (NAMPT; NAMPT enzymatic reaction) [nM]	IC50 (A2780 cells; SRB assay) [nM]
CCS(=O)(=O)c1cccc(S(=O)(=O)c2ccc(CNC(=O)c3cc4cnccc4[nH]3)cc2)c1 [N-[(4-{[3-(ethanesulfonyl)benzene]sulfonyl}phenyl)methyl]-1H-pyrrolo[3,2-c]pyridine-2-carboxamide]	17	15.5	–	–
CCCCOc1cccc(S(=O)(=O)c2ccc(CNC(=O)c3cc4cnccc4[nH]3)cc2)c1 [N-({4-[(3-butoxybenzene)sulfonyl]phenyl}methyl)-1H-pyrrolo[3,2-c]pyridine-2-carboxamide]	–	21.6	11.5	–
O=C(NCc1ccc(S(=O)(=O)c2ccc(N3CCOCC3)nc2)cc1)c1cnc2nccn2c1 [N-({4-[6-(morpholin-4-yl)pyridine-3-sulfonyl]phenyl}methyl)imidazo[1,2-a]pyrimidine-6-carboxamide]	1.1	3.3	–	–
CC(=O)c1ccccc1S(=O)(=O)c1ccc(CNC(=O)c2cc3ccncc3s2)cc1 [N-({4-[(2-acetylbenzene)sulfonyl]phenyl}methyl)thieno[2,3-c]pyridine-2-carboxamide]	–	–	1	1
CCc1ccc(S(=O)(=O)c2ccc(CNC(=O)c3ccc4nccn4c3)cc2)cc1 [N-({4-[(4-ethylbenzene)sulfonyl]phenyl}methyl)imidazo[1,2-a]pyridine-6-carboxamide]	–	7.36	16.5	–
O=C(NCc1ccc(S(=O)(=O)c2ccc(C(F)(F)F)cc2)cc1)c1cnc2[nH]ncc2c1 [N-[(4-{[4-(trifluoromethyl)benzene]sulfonyl}phenyl)methyl]-1H-pyrazolo[3,4-b]pyridine-5-carboxamide]	19.9	19.4	–	–
COc1cccc(S(=O)(=O)c2ccc(CNC(=O)c3cc4cnccc4[nH]3)cc2)c1 [N-({4-[(3-methoxybenzene)sulfonyl]phenyl}methyl)-1H-pyrrolo[3,2-c]pyridine-2-carboxamide]	–	–	7	4
O=C(NCc1ccc(S(=O)(=O)Nc2cccc3c(=O)occc23)cc1)c1cc2cnccc2[nH]1 [N-({4-[(1-oxo-1H-isochromen-5-yl)sulfamoyl]phenyl}methyl)-1H-pyrrolo[3,2-c]pyridine-2-carboxamide]	–	–	8	2270
C#CCOc1ccc(Cl)cc1S(=O)(=O)c1ccc(CNC(=O)c2ccc3nccn3c2)cc1	7	1.4	–	–
O=C(NCc1ccc(S(=O)(=O)c2cncc(F)c2)cc1)c1cc2cnccc2[nH]1 [N-{[4-(5-fluoropyridine-3-sulfonyl)phenyl]methyl}-1H-pyrrolo[3,2-c]pyridine-2-carboxamide]	71.3	13.6	–	–
CCCOc1ccc(Cl)cc1S(=O)(=O)c1ccc(CNC(=O)c2cc3ccncc3s2)cc1	–	1.2	5.7	–
Cc1cc(F)cc(S(=O)(=O)c2ccc(CNC(=O)c3ccc4nccn4c3)cc2)c1 [N-({4-[(3-fluoro-5-methylbenzene)sulfonyl]phenyl}methyl)imidazo[1,2-a]pyridine-6-carboxamide]	–	0.6	2.7	–
Cc1cccc(S(=O)(=O)c2ccc(CNC(=O)c3cc4cnccc4[nH]3)cc2)c1C [N-({4-[(2,3-dimethylbenzene)sulfonyl]phenyl}methyl)-1H-pyrrolo[3,2-c]pyridine-2-carboxamide]	14	7	–	–
Cn1cc2cc(S(=O)(=O)c3ccc(CNC(=O)c4cc5ccncc5s4)cc3)ccc2n1 [N-{[4-(2-methyl-2H-indazole-5-sulfonyl)phenyl]methyl}thieno[2,3-c]pyridine-2-carboxamide]	5.5	3.3	–	–
CN(C)c1ncc(S(=O)(=O)c2ccc(CNC(=O)c3cc4cnccc4[nH]3)cc2)cn1 [N-({4-[2-(dimethylamino)pyrimidine-5-sulfonyl]phenyl}methyl)-1H-pyrrolo[3,2-c]pyridine-2-carboxamide]	19	3.5	–	–
Cc1cc(C)n(-c2cccc(S(=O)(=O)c3ccc(CNC(=O)c4cc5ccncc5s4)cc3)c2)n1	3.1	1.5	–	–
COc1ccccc1S(=O)(=O)c1ccc(CNC(=O)c2ccc3nccn3c2)cc1 [N-({4-[(2-methoxybenzene)sulfonyl]phenyl}methyl)imidazo[1,2-a]pyridine-6-carboxamide]	–	15.3	26.5	–

Compound	IC50 (NAMPT; NAMPT enzymatic assay) [nM]	IC50 (A2780 cells; SRB) [nM]	IC50 (NAMPT; NAMPT enzymatic reaction) [nM]	IC50 (A2780 cells; SRB assay) [nM]
Cc1ccncc1S(=O)(=O)c1ccc(CNC(=O)c2cc3ccncc3o2)cc1 [N-{[4-(4-methylpyridine-3-sulfonyl)phenyl]methyl}furo[2,3-c]pyridine-2-carboxamide]	25.2	62	–	–
CC(C)Oc1cc(F)ccc1S(=O)(=O)c1ccc(CNC(=O)c2cc3ccncc3o2)cc1	15.6	13.9	–	–
CC(C)COc1cccc(S(=O)(=O)c2ccc(CNC(=O)c3cnc4[nH]ncc4c3)cc2)c1	28.5	34.2	–	–
O=C(NCc1ccc(S(=O)(=O)c2cccc(OCC(F)(F)F)c2)cc1)c1cnc2nccn2c1	5.5	11.4	–	–
Cn1cc(S(=O)(=O)c2ccc(CNC(=O)c3cnc4nccn4c3)cc2)cn1 [N-{[4-(1-methyl-1H-pyrazole-4-sulfonyl)phenyl]methyl}imidazo[1,2-a]pyrimidine-6-carboxamide]	8.2	100 to 1000	–	–
COc1ccc(S(=O)(=O)c2ccc(CNC(=O)c3ccc4nccn4c3)cc2)cc1OC [N-({4-[(3,4-dimethoxybenzene)sulfonyl]phenyl}methyl)imidazo[1,2-a]pyridine-6-carboxamide]	–	2.51	12	–
COc1cc(F)c(F)cc1S(=O)(=O)c1ccc(CNC(=O)c2ccc3nccn3c2)cc1 [N-({4-[(4,5-difluoro-2-methoxybenzene)sulfonyl]phenyl}methyl)imidazo[1,2-a]pyridine-6-carboxamide]	–	6.8	28.1	–
Cc1cccc(S(=O)(=O)c2ccc(CNC(=O)c3cnc4nccn4c3)cc2)c1	–	9.1	1.9	–
O=C(NCc1ccc(S(=O)(=O)c2cnc3ccccc3c2)cc1)c1cc2cnccc2[nH]1 [N-{[4-(quinoline-3-sulfonyl)phenyl]methyl}-1H-pyrrolo[3,2-c]pyridine-2-carboxamide]	16.3	2.9	–	–
O=C(NCc1ccc(S(=O)(=O)c2ccc(N3CCOCC3)cc2)cc1)c1ccc2nccn2c1	3.5	0.9	–	–
Cc1cc(F)ccc1S(=O)(=O)c1ccc(CNC(=O)c2cnc3nccn3c2)cc1	–	100 to 1000	13	–
O=C(NCc1ccc(S(=O)(=O)c2ccc(C(F)(F)F)cc2)cc1)c1cc2cnccc2[nH]1 [N-[(4-{[4-(trifluoromethyl)benzene]sulfonyl}phenyl)methyl]-1H-pyrrolo[3,2-c]pyridine-2-carboxamide]	–	–	24	26
COc1ccc(F)cc1S(=O)(=O)c1ccc(CNC(=O)c2cnc3[nH]ncc3c2)cc1	–	15.1	39	–
COc1ccc(S(=O)(=O)c2ccc(CNC(=O)c3cc4ccncc4s3)cc2)cc1OC [N-({4-[(3,4-dimethoxybenzene)sulfonyl]phenyl}methyl)thieno[2,3-c]pyridine-2-carboxamide]	–	–	3	0.9
CCC[C@@H](O)c1ccc(S(=O)(=O)c2ccc(CNC(=O)c3cc4ccncc4o3)cc2)cc1	28.5	12.2	–	–
Cc1cc(C)cc(S(=O)(=O)c2ccc(CNC(=O)c3cnc4nccn4c3)cc2)c1	–	2	1.7	–
